# Reference: PMC6331797, “Escherichia coli ASKA Clone Library Harboring tRNA-Specific Adenosine Deaminase (tadA) Reveals Resistance towards Xanthorrhizol” (Molecules, 2015)
# How the values were obtained:
# Assay in all cases: tryptophan fluorescence quenching titration with purified protein
# Format in all cases: binding
# [1] = molecular target: T1, tadA (tRNA-specific adenosine deaminase) (Escherichia coli, UniProt P68398, F149G)
# T1 construct: his-tagged tadA
# [2] = molecular target: T2, tadA (tRNA-specific adenosine deaminase) (Escherichia coli, UniProt P68398)
# T2 construct: his-tagged tadA
# [3] = molecular target: T3, tadA (tRNA-specific adenosine deaminase) (Escherichia coli, UniProt P68398, A143V)
# T3 construct: his-tagged tadA
# T3 sequence (P68398 whole entry A143V): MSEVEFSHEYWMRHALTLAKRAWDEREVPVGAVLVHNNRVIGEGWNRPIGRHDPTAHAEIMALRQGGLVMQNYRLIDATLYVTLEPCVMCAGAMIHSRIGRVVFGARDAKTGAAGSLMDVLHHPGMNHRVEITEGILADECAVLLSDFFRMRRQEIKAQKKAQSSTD
# T2 sequence (P68398 whole entry): as the sequence (P68398 whole entry A143V) above, with V143A counted along it
# T1 sequence (P68398 whole entry F149G): as the sequence (P68398 whole entry A143V) above, with V143A, F149G counted along it
smiles,measurement,setting,value
CC(C)=CCC[C@@H](C)c1ccc(C)c(O)c1 [xanthorrhizol],Kd,[1],32.8 µM
same,Kd,[2],19 µM
same,Kd,[3],110 µM
